Assay [1] relates to Staph. aureus A-9537. The assay is described as follows: MIC, tube dilution, Staphylococcus aureus A9537. In kind it is cell-based. As to conditions: Staphylococcus aureus, A9537, Staph. aureus A9537; overnight 37° C., Nutrient Broth; read-out: Minimum Inhibitory Concentration (M.I.C.). An excerpt:
(§1) Representative compounds of the present invention were subjected to in vitro antibiotic screening against a variety of microorganisms.

In assay [2] the test system is Ent. cloacae A-9656. Nature of the assay: MIC, tube dilution, Enterobacter cloacae A9656. The class given is cell-based. To be noted: overnight 37° C., read-out: Minimum Inhibitory Concentration (M.I.C.).
Source text: as §1

Assay [3] deals with Str. pyogenes A-9604. Nature of the assay: MIC, tube dilution, Streptococcus pyogenes A9604. To be noted: Streptococcus pyogenes, A9604, Str. pyogenes A9604; overnight 37° C., Nutrient Broth; read-out: Minimum Inhibitory Concentration (M.I.C.). The class given is cell-based.
Source text: as §1

In assay [4] the test system is Str. faecalis A-20688. Nature of the assay: MIC, tube dilution, Streptococcus faecalis A20688. In kind it is cell-based. To be noted: Enterococcus faecalis, A20688, Str. faecalis A20688; overnight 37° C.; read-out: Minimum Inhibitory Concentration (M.I.C.).
Source text: as §1

The test system of assay [5] is Ps. aeruginosa A-9843A. The assay is described as follows: MIC, tube dilution, Pseudomonas aeruginosa A9843A. In kind it is cell-based. As to conditions: Pseudomonas aeruginosa, A9843A, read-out: Minimum Inhibitory Concentration (M.I.C.), Pseudomonas aeruginosa A9843A; overnight 37° C.
Source text: as §1

The subject of assay [6] is E. coli A-15119. The assay is described as follows: MIC, tube dilution, Escherichia coli A15119. In kind it is cell-based. As to conditions: Escherichia coli, A15119, E. coli A15119; overnight 37° C.; read-out: Minimum Inhibitory Concentration (M.I.C.).
Source text: as §1

The subject of assay [7] is Pr. mirabilis A-9900. The assay is described as follows: MIC, tube dilution, Proteus mirabilis A9900. In kind it is cell-based. To be noted: Proteus mirabilis, A9900, Proteus mirabilis A9900; overnight 37° C.; read-out: Minimum Inhibitory Concentration (M.I.C.).
Source text: as §1

Assay [8] deals with Klebsiella species A20468. The assay is described as follows: MIC, tube dilution, Klebsiella species A20468. In kind it is cell-based. As to conditions: Klebsiella species (K. pneumoniae) A20468; overnight 37° C.; read-out: Minimum Inhibitory Concentration (M.I.C.).
Source text: as §1

In assay [9] the test system is Ser. marcescens A-20019. The assay is described as follows: MIC, tube dilution, Serratia marcescens A20019. The class given is cell-based. To be noted: Serratia marcescens, A20019, Serratia marcescens A20019; overnight 37° C.; read-out: Minimum Inhibitory Concentration (M.I.C.).
Source text: as §1

Assay [10] deals with Staph. aureus A-9537 and 50% serum. Nature of the assay: MIC, tube dilution, Staph. aureus A9537 + 50% serum. To be noted: Staphylococcus aureus, overnight 37° C., read-out: Minimum Inhibitory Concentration (M.I.C.). The class given is cell-based, Staphylococcus aureus.
Source text: as §1

Assay [11] relates to K. pneumoniae A-15130. The assay is described as follows: MIC, tube dilution, Klebsiella pneumoniae A15130. In kind it is cell-based. To be noted: Klebsiella pneumoniae, A15130, K. pneumoniae A15130; overnight 37° C.; read-out: Minimum Inhibitory Concentration (M.I.C.).
Source text: as §1

In assay [12] the test system is Proteus rettgeri A21203. Nature of the assay: MIC, tube dilution, Proteus rettgeri A21203. To be noted: Providencia rettgeri, overnight 37° C., read-out: Minimum Inhibitory Concentration (M.I.C.). The class given is cell-based.
Source text: as §1

Assay [13] concerns Ps. aeruginosa A-21213. The assay is described as follows: MIC, tube dilution, Pseudomonas aeruginosa A21213. To be noted: overnight 37° C., read-out: Minimum Inhibitory Concentration (M.I.C.). The class given is cell-based.
Source text: as §1

Assay [14] deals with Str. pneumoniae A-9585. Nature of the assay: MIC, tube dilution, Streptococcus pneumoniae A9585. The class given is cell-based. As to conditions: Streptococcus pneumoniae, A9585, Str. pneumoniae A9585; overnight 37° C., Nutrient Broth; read-out: Minimum Inhibitory Concentration (M.I.C.).
Source text: as §1

The subject of assay [15] is Ent. cloacae A-9659. The assay is described as follows: MIC, tube dilution, Enterobacter cloacae A9659. The class given is cell-based. To be noted: Enterobacter cloacae, A9659, Enterobacter cloacae A9659; overnight 37° C.; read-out: Minimum Inhibitory Concentration (M.I.C.).
Source text: as §1

Assay [16] deals with Pr. morganii A-15153. Nature of the assay: MIC, tube dilution, Proteus morganii A15153. The class given is cell-based. To be noted: Morganella morganii, A15153, Proteus morganii A15153; overnight 37° C.; read-out: Minimum Inhibitory Concentration (M.I.C.).
Source text: as §1

The test system of assay [17] is Staph. aureus (Meth-Res) A-15097. The assay is described as follows: MIC, tube dilution, Staphylococcus aureus A15097 (Meth-Res). As to conditions: Staphylococcus aureus, overnight 37° C. The class given is cell-based.
Source text: as §1

For assay [18], the system named is Proteus vulgaris A21559. Nature of the assay: MIC, tube dilution, Proteus vulgaris A21559. To be noted: Proteus vulgaris. The class given is cell-based.
Source text: as §1

For assay [19], the system named is Staph. aureus (Pen-Res) A-9606. The assay is described as follows: MIC, tube dilution, Staphylococcus aureus A9606 (Pen-Res). The class given is cell-based. As to conditions: Staphylococcus aureus, overnight 37° C.
Source text: as §1

Assay [20] has as its system E. coli A-20341-1. The assay is described as follows: MIC, tube dilution, Escherichia coli A20341-1. In kind it is cell-based.
Source text: as §1

The mark [21] stands for this setting: Enterobacter cloacae, A9656, Enterobacter cloacae A9656.
[22] abbreviates: A21203, Proteus rettgeri A21203.
[23] abbreviates: Pseudomonas aeruginosa, A21213, Pseudomonas aeruginosa A21213.
Where [24] appears, read: Staph. aureus A15097 (Meth-Res), read-out: Minimum Inhibitory Concentration (M.I.C.).
Setting [25] is: A21559, Proteus vulgaris A21559, overnight 37° C., read-out: Minimum Inhibitory Concentration (M.I.C.).
Setting [26] is: Staph. aureus A9606 (Pen-Res), read-out: Minimum Inhibitory Concentration (M.I.C.).
[27] abbreviates: Escherichia coli, A203411, E. coli A20341-1; overnight 37° C.; read-out: Minimum Inhibitory Concentration (M.I.C.).

This note sets out measurements from US4272437A, “Antibacterial agents, and 4-thio azetidinone intermediates” (priority 1979, dated 1981).

In brackets after ≈: the same amount, converted by molar mass. Where a name gives a salt, the structure may show the parent alone. Read-outs that look alike come from different tables or passages of the source.

For `CC1=C(C(=O)O)N2C(=O)[C@H]([C@H](C)O)[C@H]2S1` (relative stereo) [Example 59, (1'S,5R,6S and 1'R,5S,6R) 6-(1'-Hydroxy-1'-ethyl)-2-methyl penem-3-carboxylic acid (isomer C)], the MIC in assay [1] was above 125 µg/mL; in [2] (Enterobacter cloacae A9656), above 125 µg/mL; in assay [3], 125 µg/mL (≈ 545 µM); in assay [4] it was above 125 µg/mL; in assay [5], above 125 µg/mL; in [6], above 125 µg/mL. The MIC in assay [7] was above 125 µg/mL; in assay [8], above 125 µg/mL; in [9], above 125 µg/mL; in assay [10] it was above 63 µg/mL; in assay [11], above 125 µg/mL; in assay [12] (Proteus rettgeri A21203), above 125 µg/mL. For the same compound, the MIC in assay [13] (Pseudomonas aeruginosa A21213) was above 125 µg/mL; in assay [14], 32 µg/mL (≈ 140 µM); in assay [15], above 125 µg/mL; in assay [16], above 125 µg/mL; in assay [17] (read-out: Minimum Inhibitory Concentration (M.I.C.), Staph. aureus A15097 (Meth-Res)), above 125 µg/mL; in assay [18] (A21559, read-out: Minimum Inhibitory Concentration (M.I.C.)), above 125 µg/mL. The MIC was above 125 µg/mL in assay [19] (read-out: Minimum Inhibitory Concentration (M.I.C.), Staph. aureus A9606 (Pen-Res)) and above 125 µg/mL in [20] (Escherichia coli, A203411; E. coli A20341-1; overnight 37° C.; read-out: Minimum Inhibitory Concentration (M.I.C.)).

With `CC1=C(C(=O)O)N2C(=O)[C@H]([C@@H](C)N)[C@H]2S1` (relative stereo) [Example 70, (1'R,5R,6S and 1'S,5S,6R) 6-1'Amino-1'-ethyl)-2-methylpenem-3-carboxylic Acid], the MIC in assay [1], in assay [2] (setting [21]), in assay [3], in [4], in assay [5] and in assay [6] was above 63 µg/mL in each case. The MIC in assay [7] is above 63 µg/mL; in assay [8] it was above 63 µg/mL; in assay [9], above 63 µg/mL; in assay [10], above 32 µg/mL; in assay [11], above 63 µg/mL; in assay [12] (setting [22]), above 63 µg/mL. In addition, the MIC in [13] (setting [23]), in assay [14], in assay [15], in assay [16], in [17] (setting [24]) and in assay [18] (setting [25]) was above 63 µg/mL throughout. Moreover, the MIC in assay [19] (setting [26]) and in assay [20] (setting [27]) was above 63 µg/mL in each case.

With `CC1=C(C(=O)O)N2C(=O)[C@H](CNC=O)[C@H]2S1` (relative stereo) [Example 92, 6-Formamidomethyl-2-methylpenem-3-carboxylic acid, sodium and potassium salts], the MIC is 8 µg/mL in assay [1]; 63 µg/mL in assay [2] (setting [21]); 0.5 µg/mL in [3]; above 63 µg/mL in assay [4]; above 63 µg/mL in [5]; 32 µg/mL in assay [6]. Besides, the MIC in [7] is 32 µg/mL; in assay [8] it was 63 µg/mL; in assay [9], 63 µg/mL; in [10], 32 µg/mL; in assay [11], 63 µg/mL; in assay [12] (setting [22]), 32 µg/mL. Moreover, the MIC in assay [13] (setting [23]) is above 63 µg/mL; in [14] it was 0.5 µg/mL; in [15], 63 µg/mL; in [16], 63 µg/mL; in assay [17] (setting [24]), 32 µg/mL; in assay [18] (setting [25]) it was 32 µg/mL. Besides, the MIC in assay [19] (setting [26]) was found to be 16 µg/mL; in assay [20] (setting [27]), 32 µg/mL.
